The results in this text go back to US20240158447A1, “PEPTIDES FOR USE IN THE TREATMENT OR PREVENTION OF MYOCARDIAL DAMAGE” (THE UNIVERSITY OF WESTERN AUSTRALIA, priority 2020, published 2024).

One experiment has as its system cTnI-G203S mice. In words: Echocardiography of pre-cardiomyopathic cTnI-G203S mice (Example 15). The format is in vivo, mouse. The settings on record: 5 μM, 3×/wk/5 wk; versus AID(S)-TAT; FIG. 15. From the text: Twenty to thirty week-old male mice expressing the human cTnI gene encoding the human disease-causing cTnI-G203S were generated and used for the in vivo studies. By way of background, the mice develop hallmark features of HCM between 20 and 25 weeks (Viola H, Johnstone V, Cserne Szappanos H, Richman T, Tsoutsman T, Filipovska A, et al. The L-type Ca(2+) channel facilitates abnormal metabolic activity in the cTnI-G2035 mouse model of hypertrophic cardiomyopathy. J Physiol. 2016; 594(14):4051-70; Viola H M, Shah A A, Johnstone V P A, Cserne Szappanos H, Hodson M P, Hool L C. Characterization and validation of a preventative therapy for hypertrophic cardiomyopathy in a murine model of the disease. Proc Nati Aced Sci U S A. 2020; 117(37):23113-24; Tsoutsman T, Chung J, Doolan A, Nguyen L, Williams IA, Tu E, et al. Molecular insights from a novel cardiac troponin I mouse model of familial hypertrophic cardiomyopathy. J Mol Cell Cardiol. 2006; 41(4):623-32). Age-matched male mice expressing the normal human troponin I gene were used as controls and indicated as wild-type (wt). For in vivo studies, 20-week old cTnI-G203S mice were treated with 10 μM AID(S)-TAT (2 mg/kg) or 5 μM AID-TAT mutant peptides via intraperitoneal injection, 3 times per week for a total duration of 5 weeks. The peptide was dissolved in phosphate buffered saline solution (PBS), and the total amount of the 10 μM AID-TAT mutant peptides administered over 5 weeks was 0.9 mg. The total amount of the 5 μM AID-TAT mutant peptides administered over 5 weeks was 0.45 mg Male mice were utilized to eliminate potential differences in responses due to gender. The number of mice used is indicated by N.
Echocardiographic studies to measure left ventricular function were performed on mice under light methoxyflurane anaesthesia with the use of an i13L probe on a Vivid™ 7 IQ ultrasound system (GE Healthcare, Little Chalfont, UK) as previously described (Viola H, Johnstone V, Cserne Szappanos H, Richman T, Tsoutsman T, Filipovska A, et al. The L-type Ca(2+) channel facilitates abnormal metabolic activity in the cTnI-G2035 mouse model of hypertrophic cardiomyopathy. J Physiol. 2016; 594(14):4051-70; Viola H M, Shah A A, Johnstone V P A, Cserne Szappanos H, Hodson M P, Hool L C. Characterization and validation of a preventative therapy for hypertrophic cardiomyopathy in a murine model of the disease. Proc Natl Acad Sci U S A. 2020; 117(37):23113-24; Viola H M, Johnstone V P A, Cserne Szappanos H, Richman T R, Tsoutsman T, Filipovska A, et al. The Role of the L-Type Ca(2+) Channel in Altered Metabolic Activity in a Murine Model of Hypertrophic Cardiomyopathy. JACC Basic Transl Sci. 2016; 1(1-2):61-72). Each N represents the average of quantitative measurements from wt or cTnI-G203S mice for each treatment group.

Experiment [1] has as its target T1, L-type Ca^2+ channel β2 subunit (Homo sapiens, UniProt Q08289).
T1 construct: from tissue; host or cells: whole heart (cardiac) lysate
In words: Binding competition assay of variant peptides for the β2 subunit (AID-coated beads, heart lysate, SDS-PAGE). The settings on record: competition with bead-bound AID peptide, whole heart lysate, immunoblot densitometry; FIG. 2. As for the experimental part: The affinity of each of the variant peptides to the β2 subunit was investigated through binding competition assays.
PureProteome™ NHS FlexiBind Magnetic Beads (Cat. #LSKMAGN04, Merck) were used following manufacturer recommendations. Aminohexanoic acid linked AID peptide was bound to the NHS flexibind magnetic beads at a concentration of more than 2 mg/mL to obtain saturation of the beads with peptide. Beads were first primed with an equilibration buffer (1 mM HCL) to prepare them for binding. The Ahx-AID peptide was dissolved in wash/coupling buffer (PBS, pH 7.4) and added to the beads. The beads-AID peptide mixture was left to mix uniformly on a multiplate shaker at a speed of 300 rpm at room temperature for 2 hours. To reduce non-specific binding the beads were incubated in Quench Buffer (100 mM Tris-HCl, 150 mM NaCl, pH 8.0) at room temperature for 1 hour.
The AID-peptide bound beads were split into 5 aliquots for the 5 samples prepared in Table 5. The whole heart lysate added to each of the peptide-bound beads to allow competitive binding for 2 hours at room temperature.
Upon completion, the conjugate was washed in coupling buffer, to remove unbound fraction. SDS sample buffer was added to the beads, with the tubes then heated for 5 minutes at 95° C. The eluted sample stored at −20° C. to be run through sodium dodecyl sulfate-polyacrymalide gel electrophoresis (SDS-PAGE) to determine the binding affinity of each of the variants.
The use of streptavidin dynabeads and biotinylated peptide was developed to improve the binding affinity assays. The peptide was initially biotinylated using EZ-link amine-PEG11-biotin (Spacer arm: 53.2 Å, Thermofisher Scientific, Cat. #26136) which was dissolved in 0.1M MES buffer ((2-N-morpholino)-ethanesulfonic acid) at a concentration of 1 mM. Just prior to the reaction, 0.1M EDC (N-(3-Dimethylaminopropyl)-N′-ethylcarbodiimide hydrochloride) was dissolved in MES buffer. In order to achieve complete biotinylation of the AID peptide, a 50× molar excess of biotin to peptide was required, with the total volumes of each component required shown in Table 6.
Each 78 μL aliquot of the biotinylated peptide shown in […] was enough for 6 reactions, covering the range of concentrations in which the heart lysate was again prepared with varying concentrations of the variant AID peptides according to Table 7.
The 78 μL aliquot of biotinylated AID-peptide was mixed with streptavidin dynabeads (1 mg Dynabeads per every 200 pmol biotinylated peptide) for half an hour at room temperature. The heart lysate ([…]) was incubated with the variant peptides at room temperature for 2 hours. After removing all unbound peptide from the beads, they were mixed with the pre-bound heart lysate for 2 hours at room temperature. The unbound fraction was removed. […]

The next experiment addresses T2, Cavβ2 subunit (Homo sapiens, UniProt Q08289).
T2 construct: incubated with 100 μg of Cavβ2 subunit from cardiac homogenate and cytoplasmic protein preparation; from tissue; host or cells: cardiac homogenate and cytoplasmic protein preparation
In words: Competitive binding affinity assay, biotinylated AID affinity beads vs Cavβ2 subunit (Example 9). The settings on record: dose-response 0, 10 nM to 100 μM peptide; FIG. 9. On the procedure:
In this experiment, a binding affinity assay was utilized to examine the binding efficacy of AID peptide variants presented in Table 8, compared to the original AID peptide.
Biotinylation of original AID (no TAT): For each reaction (a dose-response curve consisted of 6 reactions), 0.02 nM […] was incubated in biotinylation solution (0.1M MES buffer containing 1 nM amine-PEG11-biotin and 0.2 nM EDC) for 2 hrs at room temperature with agitation (400 rpm). Affinity beads (Dynabeads M-280 Streptavidin, ThermoFisher Scientific) were then incubated with biotinylated AID peptide for 30 min at room temperature with agitation (400 rpm). Afterwards, biotinylated AID-coated affinity beads were washed, initially in 0.1% BSA in PBS and then three times in PBS for 3 min.
Biochem J. 2000; 348 Pt 3:657-65; Haase H, Striessnig J, Holtzhauer M, Vetter R, Glossmann H. A rapid procedure for the purification of cardiac 1,4-dihydropyridine receptors from porcine heart. Eur J Pharmacol. 1991; 207(1):51-9).
Competitive binding of AID-affinity beads and Cavβ2 subunit: Cavβ2-AID mutant peptide dilutions were then incubated with biotinylated AID-coated affinity beads for 2 hrs at room temperature with gentle agitation (400 rpm). Samples were placed on a magnetic stand to allow affinity beads to migrate to the magnet. Supernatant was removed and treated with 1× sample buffer (62.5 mM Tris-HCl, pH 6.8, 2% SDS, 10% glycerol, 100 mM DTT, 0.002% Bromophenol Blue) for 5 min at 95° C. Resulting protein was analysed by immunoblot.

Experiment [2] deals with myocytes isolated from cTnI-G203S mutant mouse hearts. Nature of the experiment: Mitochondrial flavoprotein oxidation after BayK(−), myocytes from HCM hearts (Example 6). Particulars: FIG. 5. The format is cell-based. As for the experimental part: FIG. 5 presents the effect of mutant peptides on flavoprotein oxidation, a measure of metabolic activity and oxygen consumption in myocytes isolated from cTnI-G203S mutant mouse hearts that are hypertrophic.
All in vitro studies were performed in freshly isolated myocytes at 37° C. […] Following a 20 min incubation with 0.5-1 μM AID(S)-TAT, AID-TAT, peptide 6 or peptide 7, fluorescent signal of individual myocytes was quantified using Metamorph 6.3 to measure signal intensity of manually traced cell regions. An equivalent region not containing cells was used for background and was subtracted.
Autofluorescence was used to measure flavoprotein oxidation in cardiac myocytes based on previously described methods (480 nm ex, 535 nm em). Fluorescent images were taken at 1 min intervals with 1 s exposure before and after exposure to L-type Ca2+ channel agonist BayK(−). Fluorescence was reported as a percentage from the baseline pre-treatment average.

Another experiment has as its system cTnI.2 wt myocytes. In words: Flavoprotein oxidation response to BayK(−), wt myocytes (Example 10). The format is cell-based, mouse. Particulars: 0.5 μM peptide 20 min, 10 μM BayK(−), FIG. 10B. As for the experimental part: In this experiment wt myocytes were pre-exposed to 0.1, 0.5 or 1 μM for 20 min and assessed changes in flavoprotein oxidation and ψm.
Measurement of mitochondrial flavoprotein oxidation: Flavoprotein autofluorescence was used to measure flavoprotein oxidation based on previously described methods (Yaniv Y, Juhaszova M, Lyashkov A E, Spurgeon H A, Sollott S J, Lakatta E G. Ca2+-regulated-cAMP/PKA signaling in cardiac pacemaker cells links ATP supply to demand. J Mol Cell Cardiol. 2011; 51(5):740-8). […] Fluorescent images were acquired at 1 min intervals with 200 ms exposure. Metamorph 6.3 (Version 7.10.3) was used to quantify the signal by manually tracing myocytes. An equivalent region not containing cells was used as background and was subtracted. Fluorescence values recorded over 5 min before and 5 min after addition of drugs were averaged and alterations in fluorescent ratios reported as the percentage increase from the basal average. FCCP (50 μM) and NaCN (40 mM) was added at the end of each experiment to achieve a respective maximal and minimal fluorescence value indicative of maximal and minimal flavoprotein oxidation.
The ICA-L agonist BayK(−) was used to activate the channel and assess mitochondrial function. […] FIG. 10 presents the mean+/−SEM of flavoprotein fluorescence from cTnI.2 wt and cTnI-G2035 mutant myocytes before and after exposure to 10 μM BayK(−) in the presence of 1 μM AID(S)-TAT, and increasing concentrations of variant peptides as indicated. N=no. of animals, n=no. of cardiomyocytes. P values shown compared with AID(S)-TAT as determined by the Kruskal-Wallis test.

T1 sequence (Q08289 whole entry): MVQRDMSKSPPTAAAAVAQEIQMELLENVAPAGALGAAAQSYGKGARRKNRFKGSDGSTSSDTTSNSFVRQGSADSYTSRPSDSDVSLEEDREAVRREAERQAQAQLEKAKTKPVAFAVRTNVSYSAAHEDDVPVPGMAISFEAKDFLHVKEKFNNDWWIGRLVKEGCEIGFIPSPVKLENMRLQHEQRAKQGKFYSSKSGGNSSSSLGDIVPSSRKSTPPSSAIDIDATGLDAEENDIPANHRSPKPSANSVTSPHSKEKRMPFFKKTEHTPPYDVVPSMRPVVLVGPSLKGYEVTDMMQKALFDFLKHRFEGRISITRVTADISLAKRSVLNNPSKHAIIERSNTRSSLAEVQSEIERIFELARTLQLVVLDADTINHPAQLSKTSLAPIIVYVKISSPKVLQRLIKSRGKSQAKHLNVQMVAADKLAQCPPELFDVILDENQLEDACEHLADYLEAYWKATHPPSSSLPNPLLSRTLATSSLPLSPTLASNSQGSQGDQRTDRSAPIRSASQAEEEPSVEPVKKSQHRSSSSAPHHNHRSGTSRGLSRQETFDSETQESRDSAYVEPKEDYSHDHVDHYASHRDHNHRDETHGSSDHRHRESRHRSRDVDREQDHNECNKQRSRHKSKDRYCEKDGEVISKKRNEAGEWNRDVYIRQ
T2 sequence (Q08289 whole entry): as above

As for “AIDP16-TAT: QQREEDLKGYLDWITQAE with TAT sequence”, in the experiment with cTnI-G203S mice, the “IVSd, intraventricular septum in diastole” value was “restored IVSd and IVSs only”; the “IVSs, intraventricular septum in systole” value was “restored IVSd and IVSs only”.

With QQEEEDEKGYLDWITQAE (Variant P15), the “binding affinity (K0.5) for the target β2 subunit versus the original AID peptide” value in experiment [1] is “greater binding affinity (lower K0.5)”. Further, the “K0.5 values compared to AID peptide” value with Cavβ2 subunit is given as “decreased K0.5 values”. In experiment [2], the “flavoprotein oxidation in comparison with AID-TAT peptide” value is “statistically significant reduction in flavoprotein oxidation in comparison with AID-TAT peptide”. Moreover, in the experiment on cTnI.2 wt myocytes, the “BayK(−) induced increase in flavoprotein oxidation” value is reported as “effective”.

“QQEEEDLKGYLDWITQAE (Varian P14) [Variant P14]”: the “binding affinity (K0.5) for the target β2 subunit versus the original AID peptide” value in experiment [1] was “greater binding affinity (lower K0.5)”. Further, the “K0.5 values compared to AID peptide” value with Cavβ2 subunit is listed as “decreased K0.5 values”. Moreover, the “flavoprotein oxidation in comparison with AID-TAT peptide” value in experiment [2] is recorded as “statistically significant reduction in flavoprotein oxidation in comparison with AID-TAT peptide”. Also, the “BayK(−) induced increase in flavoprotein oxidation” value with cTnI.2 wt myocytes is recorded as “effective”.

With QQREEDLKGYLDWITQAE (Variant P16), the “binding affinity (K0.5) for the target β2 subunit versus the original AID peptide” value in experiment [1] is “greater binding affinity (lower K0.5)”. In addition, the “K0.5 values compared to AID peptide” value with Cavβ2 subunit is recorded as “decreased K0.5 values”.
